In patent US5149865A, “New p-oxibenzoic acid derivatives, process for their preparation and their use as drug” (Klinge Pharma GmbH, priority 1991, dated 1992):

How the values were obtained:
[1] = tested on: total cholesterol (TC) and triglyceride (TG) level in the rat serum; test: Determination of the hypolipidemic effect on rats (serum total cholesterol and triglycerides after oral administration); type: in vivo, normolipemic male Wistar rats; conditions: 100 mg/kg oral, three administrations over 3 days, groups of 10 male Wistar rats
Protocol: 1) Determination of the hypolipidemic effect on rats
The lipid-reducing effect of the test substances was examined on groups each of 10 normolipemic male Wistar rats weighing 200 to 220 g.
The tests were carried out after a 3-week retraining of the eating habits of the animals. The controlled feeding was carried out daily from 8 a.m. to 10 a.m. The test substances were administered at 11 a.m.
The test compounds were absorbed in an aqueous solution of 0.25% agar and 0.84% sodium chloride and administered orally. After three administrations over a period of 3 days blood was extracted from the animals. Cholesterol and triglycerides were determined in the serum with the aid of the "Cobas-Bio" centrifugal analyzer of Hoffmann-La Roche:
a) Cholesterol determination
CHOD-PAP method, enzymatic color test according to J. Siedel et al. (J. Clin. Chem. Clin. Biochem. 19, 838 (1981))
b) Triglyceride determination
Enzymatic cleavage of the triglycerides with the aid of special lipases with subsequent determination of the liberated glycerol according to T. O. Tiffany et al. (Clin. Chem. 20, 476 (1974))

[2] = tested on: cholesterol biosynthesis in rat liver homogenate; test: Determination of the inhibition of cholesterol synthesis in rat liver homogenate (14C acetate incorporation); type: biochemical
Protocol: 2) Determination of the inhibition of cholesterol synthesis
3 g freshly prepared rat liver were homogenized in 6 ml ice-cooled buffer and centrifuged at 20000 * g for 20 minutes. The supernatant was separated off and used for the following determinations.
10 μl of the methanolic test substance solution was pipetted into a mixture of 110 μl supernatant and 300 μl incubation solution and incubated at 37° C. for 20 minutes. Thereafter, 10 μl of a ^14 C acetate solution was pipetted in and incubated for a further 30 minutes. Thereafter, 500 μl ethanolic KOH solution was added to the mixture, further incubated for 60 minutes at 75° C. and thereafter the reaction stopped by cooling in an ice bath. To enable a yield correction to be made for the subsequent extraction of the ^14 C cholesterol forming, ^3 H cholesterol (≈10^-3) was added by pipetting. In addition, 500 μl of an ethanolic solution of cold cholesterol was added. The cholesterol of the mixture was extracted twice with 1 ml petroleum ether, the extract concentrated by evaporating to dryness and taken up in 0.6 ml of an ethanol acetone mixture (1/1). The dissolved cholesterol was then precipitated by means of 1.4 ml of a digitonin solution (=7 mg). After 15 hours at 0° C. the precipitate was centrifuged off, dissolved with 0.5 ml methanol/glacial acetic acid (33/5) and diluted with two ml methanol. The radioactivity of the resulting cholesterol was then determined in […] scintillation liquid (Dimilume) by means of a scintillation counter.
Buffer: 6.8 g KH2 PO4, 0.6 g MgCl2, 0.37 g EDTA, 1.83 g nicotine amide, 51.35 g saccharose and 0.44 ml mercaptoethanol were dissolved in distilled water and diluted to 500 ml (PH =7.2)
Incubation solution: The following were dissolved, in each case individually:
8.6 mg […] with 1.3 ml buffer
10.2 mg NADP with 1.3 ml buffer
39.6 mg glucose-6-phosphate with 0.65 ml buffer
31.6 μl glucose-6-phosphate dehydrogenase (1000 U/0.9 ml) with 0.285 buffer
These solutions were not mixed until immediately prior to use.
^14 C-acetate: Solution: 250 μCi ^14 C-Na-acetate was dissolved by means of 1 ml distilled water, Solution 2: 512.5 mg Na-acetate was dissolved in 10 ml distilled water.
Before the test, 0.1 ml of solution 1 and 0.4 ml of solution 2 were mixed and then mixed with 2 ml distilled water.
Ethanolic KOH: 10 g were dissolved in 100 ml ethanol.
Method: R. E. Dugan et al. Archives Bioch. Biophys. 152 21, (1972)

In the case of `CC(C)(C)c1ccc(C(O)CC(O)COc2ccc(C(=O)O)cc2)cc1` (single isomer, unassigned) [Diastereomer A, 1-(4'-tert.butylphenyl)-4-(4'-carboxyphenoxy)-butanediol-1,3], the “Percentage change of total cholesterol (TC) level in the rat serum, X ± SD” value (from here on “Percentage change of total cholesterol … X ± SD”) [1] is reported as -39.1 ± 15.5 % Change, the “Percentage change of triglyceride (TG) level in the rat serum, X ± SD” value (from here on “Percentage change of triglyceride … X ± SD”) [1] is reported as -26.4 ± 13.1 % Change and the “cholesterol biosynthesis in rat liver homogenate, % Control” value (“cholesterol biosynthesis … % Control” for short) ([2]; 1*10^-4 Mole/l, 100 µM) is reported as 9 % Control. For the same compound, the “cholesterol biosynthesis … % Control” value ([2]; 1*10^-5 Mole/l, 10 µM) was 36 % Control, the “cholesterol biosynthesis … % Control” value ([2]; 1*10^-6 Mole/l, 1 µM) was 103 % Control and the “cholesterol biosynthesis … % Control” value ([2]; 3*10^-4 Mole/l, 300 µM) was 2 % Control. For the same compound, the “cholesterol biosynthesis … % Control” value ([2]; 3*10^-5 Mole/l, 30 µM) was 14 % Control, the “cholesterol biosynthesis … % Control” value ([2]; 3*10^-6 Mole/l, 3 µM) was 97 % Control and the “cholesterol biosynthesis … % Control” value ([2]; 3*10^-7 Mole/l, 0.3 µM) was 122 % Control.

In the case of `CC(C)(C)c1ccc(C(O)CC(O)COc2ccc(C(=O)O)cc2)cc1` (single isomer, unassigned) [Diastereomer B, 1-(4'-tert.butylphenyl)-4-(4'-carboxyphenoxy)-butanediol-1,3], the “Percentage change of total cholesterol … X ± SD” value [1] is reported as -66.9 ± 8.6 % Change, the “Percentage change of triglyceride … X ± SD” value [1] is reported as -29.7 ± 15.5 % Change and the “cholesterol biosynthesis … % Control” value ([2]; 1*10^-5 Mole/l, 10 µM) is reported as 42 % Control.

For `CCOC(=O)C(C)(C)Oc1ccc(Cl)cc1` [Clofibrate, reference compound], the “Percentage change of total cholesterol … X ± SD” value [1] was -14.5 + 12.0 % Change and the “Percentage change of triglyceride … X ± SD” value [1] was -29.2 + 19.4 % Change.
